Converted amounts (≈) assume the structure as drawn. “Also recorded” adds a separate entry of the source. Read-outs that look alike come from different tables or passages of the source. Blank lines part the entries; values can stand above or below the compound they belong to.
How the values were obtained:
[1] = target: T1, glutathione S-transferase (GST) fusion protein containing the full length sequence for human cdc25A (Homo sapiens, UniProt P30304); assay: Inhibition of CDC25A phosphatase (fluorescein diphosphate substrate); type: biochemical; details: for IC50: 10 mM dithiothreitol, fluorescein diphosphate substrate, read-out: Approximate IC50 (concentration yielding 50% inhibition of cdc25A) (converted); for relative potency against CDC25A, vs the double bond unsaturated compounds in the series: compared with double bond unsaturated compound in this series
T1 construct: made in house; host or cells: Escherichia coli
T1 sequence (P30304 1-524): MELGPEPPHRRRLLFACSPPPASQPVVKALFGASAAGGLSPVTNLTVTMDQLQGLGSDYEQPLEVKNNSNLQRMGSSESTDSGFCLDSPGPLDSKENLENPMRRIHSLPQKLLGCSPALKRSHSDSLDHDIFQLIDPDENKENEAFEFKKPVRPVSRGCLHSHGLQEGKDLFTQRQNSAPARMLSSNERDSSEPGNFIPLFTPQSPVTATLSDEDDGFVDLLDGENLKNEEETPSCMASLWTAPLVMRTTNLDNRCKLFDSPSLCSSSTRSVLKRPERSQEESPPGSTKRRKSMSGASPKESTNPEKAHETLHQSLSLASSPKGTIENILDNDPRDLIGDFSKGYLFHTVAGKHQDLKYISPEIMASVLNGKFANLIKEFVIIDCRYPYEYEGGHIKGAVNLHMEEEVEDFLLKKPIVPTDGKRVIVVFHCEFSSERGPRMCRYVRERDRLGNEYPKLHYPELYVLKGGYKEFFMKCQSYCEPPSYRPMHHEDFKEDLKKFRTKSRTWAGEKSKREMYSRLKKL
Source text: Rice, R. L. et al., A targeted Library of Small-Molecule, Tyrosine, and Dual-Specificity Phosphatase Inhibitors Derived from a Rational Core Design and Random Side Chain Variation, Biochemistry, 1997, 36, 15965-15974. Briefly, the target enzyme for the assay was a glutathione S-transferase (GST) fusion protein containing the full length sequence for human cdc25A. The enzyme was expressed in Escherichia coli and purified by affinity chromatography over glutathione-agarose. Enzyme activity was measured under linear reaction conditions with fluorescein diphosphate as the substrate. Reactions were performed in the presence of 10 mM dithiothreitol to eliminate oxidant-type inhibitors from scoring as hits in this assay.

[2] = tested on: A549 human lung adenocarcinoma cells; assay: Clonogenic assay, inhibition of growth of lung adenocarcinoma (A549) cells; type: cell-based
Protocol: (§1) HT-29 human colon cancer cells and A549 human lung adenocarcinoma cells were purchased from the American Tissue Type Collection (Rockville, Md.). The cell were maintained in Dulbecco's modified Eagle's media (DMEM) containing 10% fetal bovine serum and harvested with 0.05% trypsin and 0.5 mM EDTA before becoming confluent.
Compound 6 prepared as discussed in the preceding examples were also evaluated for potency as inhibitors of the growth of lung adenocarcinoma cell lines. The effect of compound 6 was assessed with a clonogenic assay. In brief, A549 cells in log-phase growth were harvested, resuspended in fresh growth media and plated in triplicate in 60 mm dishes at cell concentrations estimated to yield 20-100 colonies per dish following treatment. Four hours after plating, cells were either exposed to compound 6 for one day followed by a wash and culture in fresh medium for 11 days (dotted line), or continuously exposed to this compound for 12 days (solid line). Cells were fixed and stained with Coomassie Blue at the end of the 12th day. Colonies with greater than 50 cells were scored.

[3] = tested on: HT-29 human colon cancer cells; assay: Inhibition of HT-29 colon carcinoma cell growth, soft agarose colony-forming assay; type: cell-based; details: HT-29, 168 h, continuous drug exposure over 7 days, read-out: IC50, proliferation of HT-29 colon cancer cells
Protocol: as §1
Compounds 6 and 8 prepared as discussed in the preceding examples were also evaluated for potency as inhibitors of colon cancer cell lines (HT-29). Inhibition of HT-29 colon carcinoma cell growth by compounds 6 and 8 was measured in the soft agarose colony-forming assay with continuous drug exposure over 7 days as previously described. Alley M. C. et al., Activation and inactivation of cancer chemotherapeutic agents by rat heptocytes cocultured with human tumor cell lines, Cancer Res 44:549 (1984). Briefly, soft-agarose culture was performed in 35-mm culture dishes contained a base layer consisting of 0.5 ml of standard culture medium with 0.5% agarose. […] Cell lines forming a sufficient number of detectable colonies were analyzed following 7 days of incubation. Viable colonies were stained using metabolizable tetrazolium salt, and analyzed as described previously. […]

- IC50 [1]: 14.5 µM
- IC50 ([2]; A549, 288 h, 12-day continuous exposure, read-out: concentration reducing number of A549 colonies per dish 50%): 7 µM
- IC50 ([2]; A549, one day exposure, wash, then fresh medium for 11 days, read-out: concentration giving 50% reduction of the tumor cell colony number per dish): 37 µM
- IC50 [3]: 5 µg/mL (≈ 12.1 µM)
Compound: CC(C)CCC[C@@H](C)[C@H]1CC[C@H]2[C@@H]3CC(=O)O[C@](C)(CC/C=C\C#N)[C@H]3CC[C@]12C [Compound 6]

- IC50 [1]: > 121 µM
- relative activity against CDC25A, vs 10R isomer compound 6 ([1]; 10S vs 10R isomer, compound 6): much less active
Compound: CC(C)CCC[C@@H](C)[C@H]1CC[C@H]2[C@@H]3CC(=O)O[C@@](C)(CC/C=C\C#N)[C@H]3CC[C@]12C [Compound 7]

- IC50 [1]: 24.2 µM
Compound: C/C(=C\C/C=C\C#N)[C@H]1CC[C@]2(C)[C@@H]([C@H](C)CCCC(C)C)CC[C@H]2[C@@H]1CC(=O)O [Compound 10]

- IC50 [1]: 2.17 µM
- relative potency against CDC25A, vs the double bond unsaturated compounds in the series [1]: much more potent
Compound: CC(C)CCC[C@@H](C)[C@H]1CC[C@H]2[C@@H]3CC(=O)O[C@](C)(CCCCC#N)[C@H]3CC[C@]12C [Compound 15]

The next lines start with the compound.

Compound: 3-actoxy-5, 6-seco-5-oxo-pregnen-6-oic acid [reference compound]
- inhibitory activity against CDC25A phosphatase ([1]; negative control): no inhibitory activity; also recorded: lost its activity

Compound: C=C(CC/C=C\C#N)[C@H]1CC[C@]2(C)[C@@H]([C@H](C)CCCC(C)C)CC[C@H]2[C@@H]1CC(=O)O [Compound 8]
- IC50 [1]: 10.6 µM
- IC50 [3]: 4.8 µg/mL (≈ 11.6 µM)

Compound: C/C(=C/C/C=C\C#N)[C@H]1CC[C@]2(C)[C@@H]([C@H](C)CCCC(C)C)CC[C@H]2[C@@H]1CC(=O)O [Compound 9]
- IC50 [1]: > 24.2 µM

Compound: C=C(CCCCC#N)[C@H]1CC[C@]2(C)[C@@H]([C@H](C)CCCC(C)C)CC[C@H]2[C@@H]1CC(=O)O [Compound 13]
- IC50 [1]: 2.17 µM
- relative potency against CDC25A, vs the double bond unsaturated compounds in the series [1]: much more potent

Reference: patent publication US6011058A, “Seco-cholestane derivatives and methods of making the same” (Georgia Tech Research Corporation, priority 1998, dated 2000)
